The record followed here is ChEMBL document CHEMBL4715726, “Identification, characterization, kinetics, and molecular docking of flavonoid constituents from Archidendron clypearia (Jack.) Nielsen leaves and twigs” (Bioorg Med Chem, 2016).

In assay [1] the target is T1, Bifunctional epoxide hydrolase 2 (Homo sapiens) (UniProt P34913).
T1 sequence (whole entry): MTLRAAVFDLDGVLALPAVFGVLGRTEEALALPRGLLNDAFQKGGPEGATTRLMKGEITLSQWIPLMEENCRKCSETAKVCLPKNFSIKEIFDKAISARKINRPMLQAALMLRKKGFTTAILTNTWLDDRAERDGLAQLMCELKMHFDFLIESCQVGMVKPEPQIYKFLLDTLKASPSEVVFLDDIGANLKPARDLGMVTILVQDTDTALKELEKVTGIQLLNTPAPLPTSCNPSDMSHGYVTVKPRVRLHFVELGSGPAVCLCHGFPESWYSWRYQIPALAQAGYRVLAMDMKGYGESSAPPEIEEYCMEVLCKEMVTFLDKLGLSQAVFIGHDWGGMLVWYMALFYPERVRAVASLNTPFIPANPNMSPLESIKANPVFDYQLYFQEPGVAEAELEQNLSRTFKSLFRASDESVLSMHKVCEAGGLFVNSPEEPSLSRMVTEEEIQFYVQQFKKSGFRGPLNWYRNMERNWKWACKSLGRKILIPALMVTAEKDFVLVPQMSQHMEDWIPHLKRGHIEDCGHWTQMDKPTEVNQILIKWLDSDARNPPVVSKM
The assay is described as follows: Inhibition of sEH (unknown origin) assessed as reduction in 6-methoxy-2-naphthaldehyde formation at 100 uM using PHOME as substrate measured after 40 mins by fluorescence photometry analysis relative to control.

The target in assay [2] is T2, Bifunctional epoxide hydrolase 2 (Homo sapiens, UniProt P34913).
T2 sequence (P34913 whole entry): T1 sequence (whole entry)
The assay is described as follows: Mixed type inhibition of sEH (unknown origin) using varying levels of PHOME as substrate by Dixon plot analysis.

Assay [3] concerns the target T2, Bifunctional epoxide hydrolase 2. Kind of assay: Inhibition of sEH (unknown origin) assessed as reduction in 6-methoxy-2-naphthaldehyde formation using PHOME as substrate measured after 40 mins by fluorescence photometry analysis.
In assay [4] the target is T1, Bifunctional epoxide hydrolase 2 (Homo sapiens). Particulars: dose 25.0 nM, time 40.0 min.
The target of assay [5] is T2, Bifunctional epoxide hydrolase 2. The assay is described as follows: Competitive inhibition of sEH (unknown origin) using varying levels of PHOME as substrate by Dixon plot analysis.
Assay [6] shares this target. Kind of assay: Non competitive inhibition of sEH (unknown origin) using varying levels of PHOME as substrate by Dixon plot analysis.

pIC50, pKi: −log10 of the molar value.

In general, inhibition refers to the change of the read-out against control, counted positive when it falls. On to `COc1cc(O)c2c(c1)O[C@H](c1cc(O)c(O[C@@H]3O[C@H](CO)[C@@H](O)[C@H](O)[C@H]3O[C@@H]3OC[C@](O)(CO)[C@H]3O)c(OC)c1)CC2=O`, for which the inhibition in assay [1] amounted to 53.5%.

Usually pKi stands for the Ki on a negative log10 scale, so that one unit is a factor of ten. Lower therefore signals a high Ki. Broadly, the pIC50 is the IC50 on a negative log10 scale, so that one unit is a factor of ten. As to `COc1cc(-c2oc3cc(O)cc(O)c3c(=O)c2O[C@@H]2O[C@H](CO)[C@@H](O)[C@H](O)[C@H]2O)ccc1O`, in assay [1], the inhibition came to 86.5%. The same compound gave a pKi in assay [2] of 4.53. Further, in assay [3], the negative logarithm of the IC50 (pIC50) was 4.52.

As for `CCCCOC(=O)CCCCCCCCCCCNC(=O)NC12CC3CC(CC(C3)C1)C2`, in assay [4], the inhibition is 58.9%.

As to `COc1cc(O)c2c(=O)c(O[C@@H]3O[C@H](CO)[C@@H](O)[C@H](O)[C@H]3O)c(-c3ccc(O[C@@H]4O[C@H](CO)[C@@H](O)[C@H](O)[C@H]4O)c(OC)c3)oc2c1`, in assay [1], the inhibition came to 95.8%. For the same compound, the negative logarithm of the IC50 (pIC50) in assay [3] was 4.70. The compound also had a pKi in assay [5] of 4.61.

On to `COc1cc(O)c2c(=O)cc(-c3ccc(O[C@@H]4O[C@H](CO)[C@@H](O)[C@H](O)[C@H]4O)c(OC)c3)oc2c1`, for which the inhibition in assay [1] worked out at 98.5%. In addition, the pKi in assay [2] is 4.43. For the same compound, in assay [3], the pIC50 was 4.76.

Consider `O=C(Oc1c(-c2ccc(O)c(O)c2)oc2cc(O)cc(O)c2c1=O)c1cc(O)c(O)c(O)c1`, for which the pKi in assay [6] was 4.67. Besides, in assay [1], the inhibition came to 91.2%. The pIC50 in assay [3] was 4.94.

Take `COc1cc(O)c2c(=O)cc(-c3ccc(O[C@@H]4O[C@H](CO)[C@@H](O)[C@H](O)[C@H]4O[C@@H]4OC[C@](O)(CO)[C@H]4O)c(OC)c3)oc2c1`: in assay [1], the inhibition worked out at 66.1%.

As for `COc1cc(O)c2c(=O)c(O)c(-c3ccc(O[C@@H]4O[C@H](CO)[C@@H](O)[C@H](O)[C@H]4O[C@@H]4OC[C@](O)(CO)[C@H]4O)c(OC)c3)oc2c1`, the inhibition in assay [1] came out at 64.1%.

In turn, `C[C@@H]1O[C@@H](Oc2c(-c3ccc(O)c(O)c3)oc3cc(O)cc(O)c3c2=O)[C@H](O)[C@H](O)[C@H]1O` [QUERCITRIN] gave a negative-log Ki (pKi) in assay [6] of 4.40. In addition, the inhibition in assay [1] amounted to 78.5%. Further, the pIC50 in assay [3] is 4.93.

On to `COc1cc([C@@H](O)CC(=O)c2c(O)cc(O[C@@H]3O[C@H](CO)[C@@H](O)[C@H](O)[C@H]3O[C@@H]3OC[C@](O)(CO)[C@H]3O)cc2O)ccc1O`, for which, in assay [1], the inhibition is 50.9%.

Consider `COc1cc([C@@H](O)CC(=O)c2c(O)cc(O[C@@H]3O[C@H](CO)[C@@H](O)[C@H](O)[C@H]3O)cc2O)ccc1O`, for which, in assay [1], the inhibition was 33.9%.

Take `COc1cc(O)c(C(=O)/C=C/c2ccc(O)c(OC)c2)c(O[C@@H]2O[C@H](CO)[C@@H](O)[C@H](O)[C@H]2O)c1`: the inhibition in assay [1] is 56.3%.

Consider `O=C(Oc1cc(O)c2c(c1)O[C@H](c1cc(O)c(O)c(O)c1)CC2)c1cc(O)c(O)c(O)c1`, for which the inhibition in assay [1] was determined as 90.8%. Further, the pKi in assay [2] is 4.34. The pIC50 in assay [3] is 5.00.

For `COc1cc(O)c2c(=O)c(OC)c(-c3ccc(O[C@@H]4O[C@H](CO)[C@@H](O)[C@H](O)[C@H]4O[C@@H]4OC[C@](O)(CO)[C@H]4O)c(OC)c3)oc2c1`, the pKi in assay [6] is 4.74. Besides, in assay [1], the inhibition worked out at 90.8%. Besides, the pIC50 in assay [3] is 4.92.
